This passage reports EC50 results from patent US20230295201A1 (Gilead Sciences, Inc., priority 2020, published 2023).

Read-outs that look alike come from different tables or passages of the source.

What all share (format): cell-based
For one experiment, the system named is HRV16. Briefly: HRV16 HELA EC50 (cytopathic effect in H1-HeLa cells). A digest of the protocol:
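H1-HeLa cells seeded one day before, given 3-fold serial compound dilutions in triplicate just prior to infection with pre-titrated virus. Incubated 96 h at 33 °C/5% CO2; protection from cytopathic effect read as viability by CellTiter-Glo luminescence, normalised to infected untreated (0%) and uninfected (100%) controls.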
In general terms: Damage to the host cells serves as the signal in cytopathic effect assays.

In a further experiment the test system is DENV2 replicon. In words: DENV-2 Huh-7 Rep EC50 (replicon luminescence). The settings on record: Huh-7 replicon cells, 48 hours, read-out: DENV-2 Huh-7 Rep EC50. In a few lines: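 Huh-7 cells carrying a DENV2 replicon, 5,000 cells/well, were incubated with dosed compounds for 48 h at 37° C. EnduRen live-cell substrate was added 1.5 h before luminescence reading. EC50 came from dose-response against DMSO-only wells.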

The next experiment has as its system RSV A2. In words: RSV NHBE EC50 (RSV A2 antiviral assay in normal human bronchial epithelial cells). The settings on record: NHBE cells, RSV A2, 4 days, read-out: RSV NHBE EC50.
The test system of another experiment is RSV strain A2. In words: RSV HEp-2 EC50 (infectious cytopathic cell protection assay). The note with it: HEp-2 cells, RSV A2, 4 days, read-out: RSV HEp-2 EC50. A digest of the protocol: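 HEp-2 cells mixed with titered RSV A2 at 50,000 cells/ml were added to plates holding 3-fold serial compound dilutions in DMSO, then incubated 4 days at 37° C. Cytoprotection was read as cell viability by CellTiter-Glo luminescence and converted to percent inhibition against 0% and 100% inhibition controls.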

Where [1] appears, read: H1-HeLa cells, 96 h, 33° C.; read-out: HRV16 HELA EC50.
Setting [2] is: 96 h, H1-HeLa cells, 33° C., read-out: HRV16 HELA EC50.
[3] abbreviates: Dengue virus, DENV2, Huh-7, 48 h.
Where [4] appears, read: human respiratory syncytial virus, NHBE, 96 h.
[5] abbreviates: human respiratory syncytial virus, HEp-2, 96 h.

In the case of `C[C@H](NP(=O)(OC[C@@]1(C#N)O[C@@H](c2ccc3c(N)ncnn23)[C@H](O)[C@@H]1O)Oc1ccccc1)C(=O)OCC1CCCCC1` (single isomer, unassigned) [Example 248], the EC50 (in general, the concentration giving half of the maximal effect) in the experiment on HRV16 (setting [1]) turned out to be 0.174 µM; with DENV2 replicon, 4.73 µM; in the experiment with RSV A2, 2.62 µM; with RSV strain A2 it was 0.026 µM.
Consider `C[C@H](NP(=O)(OC[C@@]1(C#N)O[C@@H](c2ccc3c(N)ncnn23)[C@H](O)[C@@H]1O)Oc1cccc2ccccc12)C(=O)OC1CCCCC1` (stereo partly drawn) [Example 203, cyclohexyl ((((2R,3S,4R,5S)-5-(4-aminopyrrolo[2,1-f][1,2,4]triazin-7-yl)-2-cyano-3,4-dihydroxytetrahydrofuran-2-yl)methoxy)(naphthalen-1-yloxy)phosphoryl)-L-alaninate], for which the EC50 in the experiment on HRV16 (setting [2]) was determined as 0.072 µM; in the experiment on DENV2 replicon (setting [3]), 4.46 µM; in the experiment on RSV A2 (setting [4]), 0.018 µM; with RSV strain A2 (setting [5]) it was 0.031 µM.
Taken in the same sequence, the figures for `CCC(CC)COC(=O)[C@H](CC)NP(=O)(OC[C@@]1(C#N)O[C@@H](c2ccc3c(N)ncnn23)[C@H](O)[C@@H]1O)Oc1ccccc1` (mixture of isomers) [Example 88, (2S)-2-ethylbutyl 2-(((((2R,3S,4R,5S)-5-(4-aminopyrrolo[2,1-f][1,2,4]triazin-7-yl)-2-cyano-3,4-dihydroxytetrahydrofuran-2-yl)methoxy)(phenoxy)phosphoryl)amino)butanoate] were 1.06 µM, 62 µM, 0.036 µM and 0.336 µM.
Taken in the same sequence, the figures for `CC[C@H](NP(=O)(OC[C@@]1(C#N)O[C@@H](c2ccc3c(N)ncnn23)[C@H](O)[C@@H]1O)Oc1ccccc1)C(=O)OC1CCCCC1` (mixture of isomers) [Example 103, (2S)-cyclohexyl 2-(((((2R,3S,4R,5S)-5-(4-aminopyrrolo[2,1-f][1,2,4]triazin-7-yl)-2-cyano-3,4-dihydroxytetrahydrofuran-2-yl)methoxy)(phenoxy)phosphoryl)amino)butanoate] were 2.44 µM, over 50 µM, 0.548 µM and 0.938 µM.
For `C[C@H](N[P@](=O)(OC[C@@]1(C#N)O[C@@H](c2ccc3c(N)ncnn23)[C@H](O)[C@@H]1O)Oc1ccccc1)C(=O)OCC(C)(C)C` [Example 94], the concentration giving a half-maximal response (EC50) in the experiment with HRV16 (setting [1]) came out at 0.209 µM; with DENV2 replicon, 2.34 µM; with RSV A2, 0.118 µM; in the experiment on RSV strain A2, 0.1 µM.
Take `CCCCCCCCCCCCOC(=O)[C@H](C)NP(=O)(OC[C@@]1(C#N)O[C@@H](c2ccc3c(N)ncnn23)[C@H](O)[C@@H]1O)Oc1ccccc1` (stereo partly drawn) [Example 191, dodecyl ((((2R,3S,4R,5S)-5-(4-aminopyrrolo[2,1-f][1,2,4]triazin-7-yl)-2-cyano-3,4-dihydroxytetrahydrofuran-2-yl)methoxy)(phenoxy)phosphoryl)-L-alaninate]: the EC50 stood at 3.4 µM in the experiment on HRV16 (setting [2]), 61.3 µM in the experiment on DENV2 replicon (setting [3]), 0.035 µM in the experiment with RSV A2 (setting [4]) and 2.39 µM in the experiment on RSV strain A2 (setting [5]).
As to `CCC(CC)COC(=O)[C@H](C)N[P@](=O)(OC[C@@]1(C#N)O[C@@H](c2ccc3c(N)ncnn23)[C@H](O)[C@@H]1O)Oc1ccccc1` (single isomer, unassigned) [Example 25], the EC50 stood at 0.135 µM with HRV16 (setting [2]), 2.86 µM in the experiment with DENV2 replicon (setting [3]), 0.127 µM in the experiment on RSV A2 (setting [4]) and 0.026 µM in the experiment on RSV strain A2 (setting [5]).
Take `CCCCCCCCCCCC(=O)OCCNP(=O)(OC[C@@]1(C#N)O[C@@H](c2ccc3c(N)ncnn23)[C@H](O)[C@@H]1O)Oc1ccccc1` (mixture of isomers) [Example 181, 2-(((((2R,3S,4R,5S)-5-(4-aminopyrrolo[2,1-f][1,2,4]triazin-7-yl)-2-cyano-3,4-dihydroxytetrahydrofuran-2-yl)methoxy)(phenoxy)phosphoryl)amino)ethyl dodecanoate]: the 50% effective concentration (EC50) in the experiment on HRV16 (setting [2]) amounted to 0.035 µM; in the experiment on DENV2 replicon (setting [3]), 5.25 µM; with RSV A2 (setting [4]) it was 0.043 µM; in the experiment on RSV strain A2 (setting [5]) it was 0.008 µM.
Regarding `C[C@H](N[P@](=O)(OC[C@@]1(C#N)O[C@@H](c2ccc3c(N)ncnn23)[C@H](O)[C@@H]1O)Oc1ccccc1)C(=O)O[C@H]1CC[C@H](C(C)(C)C)CC1` (single isomer, unassigned) [Example 22], the EC50 with HRV16 (setting [2]) was found to be 0.2 µM; with DENV2 replicon (setting [3]) it was 5.75 µM; in the experiment on RSV A2 (setting [4]), 0.036 µM; in the experiment with RSV strain A2 (setting [5]) it was 0.103 µM.
Taken in the same sequence, the figures for `C[C@H](NP(=O)(OC[C@@]1(C#N)O[C@@H](c2ccc3c(N)ncnn23)[C@H](O)[C@@H]1O)Oc1ccccc1)C(=O)OCC1CC1` (mixture of isomers) [Example 8, (2S)-cyclopropylmethyl 2-(((((2R,3S,4R,5S)-5-(4-aminopyrrolo[2,1-f][1,2,4]triazin-7-yl)-2-cyano-3,4-dihydroxytetrahydrofuran-2-yl)methoxy)(phenoxy)phosphoryl)amino)propanoate] were 0.472 µM, 37.3 µM, 0.351 µM and 0.182 µM.
In the case of `COC(=O)[C@H](C)N[P@](=O)(OC[C@@]1(C#N)O[C@@H](c2ccc3c(N)ncnn23)[C@H](O)[C@@H]1O)Oc1ccccc1` [Example 52, methyl ((S)-(((2R,3S,4R,5S)-5-(4-aminopyrrolo[2,1-f][1,2,4]triazin-7-yl)-2-cyano-3,4-dihydroxytetrahydrofuran-2-yl)methoxy)(phenoxy)phosphoryl)-L-alaninate], the 50% effective concentration (EC50) in the experiment on HRV16 (setting [2]) is 1.25 µM; with DENV2 replicon (setting [3]) it was over 47 µM; in the experiment on RSV A2 (setting [4]), 0.252 µM; with RSV strain A2 (setting [5]) it was 0.094 µM.
Turning to `C[C@H](NP(=O)(OC[C@@]1(C#N)O[C@@H](c2ccc3c(N)ncnn23)[C@H](O)[C@@H]1O)Oc1ccccc1)C(=O)OCC1CCCCC1` (single isomer, unassigned) [Example 247], the 50% effective concentration (EC50) in the experiment on HRV16 (setting [2]) came out at 0.317 µM; in the experiment with DENV2 replicon it was 12 µM; with RSV A2, 0.51 µM; in the experiment on RSV strain A2 (setting [5]), 0.044 µM.
